{"source": "patent US8617563B2", "about": "“Antichlamydial agents” (Duke University, priority 2011, dated 2013)", "key": {"[1]": {"biological_target": "T1, CPAF (Chlamydia trachomatis serovar D, UniProt O84866)", "type": "biochemical, C. trachomatis", "design": "6xHis; made in house; host or cells: E. coli (pET30b)", "details": "GST-tagged chlamydial substrates, 37° C., 20 min", "description": "FIG. 4 depicts (A) Recombinant Chlamydia ORFs were tested for sensitivity to host and bacterial derived proteases. […] Purified his-tagged CPAF was incubated with GST-tagged chlamydial substrates at 37° C. for 20 min with increasing amounts of lactacystin. Cleavage products were run on an SDS PAGE gel and visualized with Coomassie blue staining. (C) Schematic summary of CPAF targets. […] Membranes from Chlamydia-infected HeLa cells were harvested and purified at 0, 24, 36 and 48 hours post-infection, and the abundance of the chlamydial proteins Ct005, IncC and IncD were monitored with specific antibodies. Na/K ATPase and IncG served as host and bacterial-loading controls, respectively.\n(§1) Cytosols from Chlamydia-infected HeLa cells (40 hrs) or recombinant his-tagged CPAF were pre-treated with rabbit polyclonal anti-CPAF or anti-IncA antisera, and incubated with GST-tagged Chlamydia proteins for 20 min at 37° C. […] Three example proteins shown include a type-III secretion (T3S) core component (CdsQ) a T3S chaperone (Mcsc) and a T3S needle component (Ct584). Processing of recombinant proteins in A-B were monitored by immunoblot analysis with specific antibodies. (C) Protease inhibitor profile of recombinant CPAF. Example shown for the chlamydial substrate GST-IncC. Degradation products were visualized by SDS-PAGE followed by staining with Coomassie blue. […]\nUninfected and HeLa cells pre-infected with L2 for 30 hrs were treated with inhibitory peptides and infected with EBs for 10 min Tarp translocation was indirectly visualized with an anti-phosphotyrosine antibody (A) and quantified by counting 50 separate cells (B). The stability of newly translocated Tarp was assessed by infecting cells as in (A) but with S^35-labeled EBs, followed by sequential immunoprecipitation of Tarp and MOMP and Phosphoimager analysis of precipitated material (C (I-IV)). […] IC50 values were determined by assessing CPAF cleavage of an Abz-tagged CPAF substrate (SEQ ID NO:9) by HPLC. […] Extracellular bacteria were determined. […] The number of internalized EBs was quantified per cell (H). […]"}, "[2]": {"biological_target": "T1, CPAF", "test": "HPLC-based CPAF inhibition assay with Abz-tagged model substrate (SEQ ID NO:9)", "type": "biochemical, C. trachomatis", "design": "6xHis; made in house; host or cells: E. coli BL21 (DE3), plasmid pET30b-CPAF", "details": "CPAF 62.5 nM, substrate SEQ ID NO:9 0.5 mM, inhibitor 0-240 μM", "description": "FIG. 1 depicts the results of HPLC-based CPAF inhibition assays using a model CPAF substrate (SEQ ID NO:9) to compare inhibition of CPAF protease activity by SEQ ID NO:7, SEQ ID NO:2, and lactacystin. HPLC-based assays were performed in a final volume of 100 μL containing assay buffer, CPAF (62.5 nM), substrate 1 (0.5 mM), and varying concentrations of inhibitor (0-240 μM).\nHPLC-based assays comprised an Abz-tagged model CPAF substrate (SEQ ID NO:9) and were performed in a final volume of 100 μL containing 150 mM NaCl, 50 mM Tris pH 7.50, purified CPAF (62.5 nM), fluorescent-tagged model CPAF substrate (0.5 mM), and varying concentrations of each candidate compound (0-240 μM). IC50 values were determined by pre-incubating CPAF with varying concentrations of candidate compound for 5 min at room temperature prior to initiation of the reaction via the addition of model CPAF substrate. Reactions were allowed to proceed for 90 seconds at 25° C., followed by removal of 80 μL aliquots and quenching by the addition of 1.2 M HCl (40 μL). Data were converted to percent activity relative to a control reaction without candidate compound and fit to the following equation using GraFit v6.0, where [I] is the concentration of candidate compound and s is a slope factor: […]"}, "[3]": {"biological_target": "T1, CPAF", "type": "biochemical, C. trachomatis", "design": "endogenous in cells; host or cells: HeLa cells infected with C. trachomatis LGV-L2 434/Bu (the bacteria make the protein and secrete it into the host cytosol)", "details": "cytosol pre-treated with inhibitor or antibody", "description": "as §1, with “FIG. 5 depicts (A) that Polyclonal anti-CPAF antisera blocks proteolysis of chlamydial substrates. Cytosols” for “Cytosols”, “GST-IncC.” for “GST-IncC. Degradation products were visualized by SDS-PAGE followed by staining with Coomassie blue.”\nRecombinant CPAF was generated using pET30b (Huang et al., Cell Host & Microbe, 4:529-542 (2008). For in vitro cleavage assays, Chlamydia ORFs were expressed in either yeast or E. coli. Crude recombinant proteins were incubated for 30 minutes with cytosol from uninfected or LGV-L2 infected (40 h) HeLa cells, and processing was assessed by SDS-PAGE and immunoblotting using standard techniques. Approximately 8% of the expressed chlamydial proteins were sensitive to degradation after incubation with cytosol derived from infected cells (FIG. 3A). Processing ranged from the generation of distinct cleavage fragments to complete degradation (FIG. 3B). […]"}, "[4]": {"biological_target": "T1, CPAF", "design": "endogenous in cells; host or cells: HeLa cells infected with C. trachomatis LGV-L2 434/Bu (the bacteria make the protein and secrete it into the host cytosol)", "details": "C. trachomatis LGV-L2 434-infected HeLa cells; Kumar et al. 2008; cited from earlier work"}}, "data": [{"smiles": "CC(=O)N[C@@H](CSC(=O)[C@]1([C@@H](O)C(C)C)NC(=O)[C@H](C)[C@@H]1O)C(=O)O", "note": "[lactacystin]", "values": [{"measurement": "Inhibition of proteolysis by recombinant CPAF", "setting": "[1]", "value": "inhibited"}, {"measurement": "IC50", "setting": "[2]", "value": "10.2 ± 2.3", "unit": "µM"}, {"measurement": "Protection of chlamydial proteins from degradation by cytosols of Chlamydia-infected cells", "setting": "[3]", "value": "protected from degradation"}, {"measurement": "Vimentin state in infected HeLa cells treated with lactacystin", "setting": "[4]", "value": "fiber oligomerization of vimentin"}]}]}
